Measurements: US20240069010A1, “TISSUE ORGANOID BIOPRINTING AND HIGH-THROUGHPUT SCREENING METHODOLOGY” (priority 2020, published 2024)
Like-named read-outs stand apart in the source and are kept apart here.

Columns and labels:
MCF-7 organoids [1] = assay: Endpoint ATP-release assay (CellTiter-Glo) of organoid viability; assay type: cell-based; conditions: Homo sapiens, MCF7
Procedure: All drug treatments of 3D organoids were performed in serum-free conditions in MammoCult™ medium supplemented with 1% antibiotic-antimycotic (Gibco 15240-062). A detailed protocol for the drug screening has been published previously in Phan, N. et al. supra; and Nguyen, H. T. L. & Soragni, supra. Briefly, the culture medium was fully removed three days after seeding and replaced with 100 μL of MammoCult™ medium containing the indicated treatments using an automated pipetting system (EpMotion® 96). After treatment, we transferred the organoids to the HSLCI for imaging. Organoids were imaged by HSLCI between 6 hours and 48 hours after treatment. After imaging, we performed an ATP assay to assess cell viability in accordance with the manufacturer's instructions. The media was aspirated from each well and replaced with 50 μL of 5 mg/mL Dispase (Thermo-Fisher) solution to digest the Matrigel. After a 25-minute incubation at 37° C., the plate was placed on an orbital shaker for 5 minutes at 80 RPM. We then added 30 μL of CellTiter-Glo® reagent (Promega), sealed the plate with film, covered the plate with foil to protect from light, shook the plate for 5 minutes at 80 RPM, and incubated at room temperature for an additional 20 minutes. We used a SpectraMax iD3 plate reader to measure luminescence. The program parameters for luminescence readings were 5 minutes of shaking prior to reading, reading all wavelengths, and integrating signal over 500 ms. Organoid viability within each well was calculated by dividing the luminescent signal from each well by the mean luminescence of the control (1% DMSO) wells. Two-tailed independent t-tests were performed to assess the statistical significance of the differences in organoid mass and cell viability. P-values less than 0.05 were deemed significant.

[2] = in vivo; cited from earlier work
MCF-7 organoids [3] = assay: HSLCI mass tracking of bioprinted organoids in drug screening; assay type: cell-based; conditions: for Organoid Behavior (%) Stable / Organoid Behavior (%) Gained Mass / Organoid Behavior (%) Lost Mass: MCF-7 organoids; for Organoid Behavior (%) Stable: mass change <10%; for Organoid Behavior (%) Gained Mass: mass increase >10%; for Organoid Behavior (%) Lost Mass: mass loss >10%
[4] = MCF-7, 72 h of treatment, luminescence relative to 1% DMSO control, read-out: Organoid viability by endpoint ATP assay, Viability ± SD
[5] = listed as printed as 6 hours, relative to 1% DMSO, read-out: Comparisons of cell viability measures by ATP detection assay, Mean mass ± SD

## CS(=O)(=O)CCNCc1ccc(-c2ccc3ncnc(Nc4ccc(OCc5cccc(F)c5)c(Cl)c4)c3c2)o1 [Lapatinib, lapatinib]
MCF-7 organoids [1]; [4]
  viability at 0.1 µM: 100 ± 3%
  viability at 1 µM: 101 ± 4%
  viability at 10 µM: 66 ± 7%
  viability at 50 µM: 14 ± 3%
MCF-7 organoids [1]; [5]
  viability at 0.1 µM: 100 ± 3%
  viability at 1 µM: 101 ± 4%
  viability at 10 µM: 66 ± 7%
  viability at 50 µM: 14 ± 3%
[2]
  maximum plasma concentration reported: 4.2 µM
MCF-7 organoids [3]; 0.1 μM, 6 hours of treatment
  Mean mass of MCF-7 organoids, Mean mass ± SD: 2.00 ± 1.43 ng
MCF-7 organoids [3]; 0.1 μM, 48 hours of treatment
  Mean mass of MCF-7 organoids, Mean mass ± SD: 2.76 ± 2.35 ng
MCF-7 organoids [3]; 1 μM, 6 hours of treatment
  Mean mass of MCF-7 organoids, Mean mass ± SD: 2.20 ± 1.33 ng
MCF-7 organoids [3]; 1 μM, 48 hours of treatment
  Mean mass of MCF-7 organoids, Mean mass ± SD: 2.71 ± 2.09 ng
MCF-7 organoids [3]; 10 μM, 6 hours of treatment
  Mean mass of MCF-7 organoids, Mean mass ± SD: 2.30 ± 1.48 ng
MCF-7 organoids [3]; 10 μM, 48 hours of treatment
  Mean mass of MCF-7 organoids, Mean mass ± SD: 2.46 ± 1.90 ng
MCF-7 organoids [3]; 50 μM, 6 hours of treatment
  Mean mass of MCF-7 organoids, Mean mass ± SD: 1.71 ± 0.84 ng
MCF-7 organoids [3]; 50 μM, 48 hours of treatment
  Mean mass of MCF-7 organoids, Mean mass ± SD: 1.32 ± 1.03 ng
MCF-7 organoids [3]; 50 μM, 48 hours of treatment, listed as lapatinib
  Mean mass of MCF-7 organoids, Mean mass ± SD: 1.32 ± 1.06 ng
MCF-7 organoids [3]; 0.1 μM, 12 h
  Organoid Behavior (%) Stable: 73.5%
  Organoid Behavior (%) Gained Mass: 17.6%
  Organoid Behavior (%) Lost Mass: 8.8%
MCF-7 organoids [3]; 0.1 μM, 24 h
  Organoid Behavior (%) Stable: 56.3%
  Organoid Behavior (%) Gained Mass: 28.1%
  Organoid Behavior (%) Lost Mass: 15.6%
MCF-7 organoids [3]; 0.1 μM, 48 h
  Organoid Behavior (%) Stable: 34.4%
  Organoid Behavior (%) Gained Mass: 46.9%
  Organoid Behavior (%) Lost Mass: 18.8%
MCF-7 organoids [3]; 1 μM, 12 h
  Organoid Behavior (%) Stable: 88.2%
  Organoid Behavior (%) Gained Mass: 8.8%
  Organoid Behavior (%) Lost Mass: 2.9%
MCF-7 organoids [3]; 1 μM, 24 h
  Organoid Behavior (%) Stable: 45.2%
  Organoid Behavior (%) Gained Mass: 45.2%
  Organoid Behavior (%) Lost Mass: 9.7%
MCF-7 organoids [3]; 1 μM, 48 h
  Organoid Behavior (%) Stable: 26.3%
  Organoid Behavior (%) Gained Mass: 55.3%
  Organoid Behavior (%) Lost Mass: 18.4%
MCF-7 organoids [3]; 10 μM, 12 h
  Organoid Behavior (%) Stable: 84.1%
  Organoid Behavior (%) Gained Mass: 6.8%
  Organoid Behavior (%) Lost Mass: 9.1%
MCF-7 organoids [3]; 10 μM, 24 h
  Organoid Behavior (%) Stable: 56.5%
  Organoid Behavior (%) Gained Mass: 26.1%
  Organoid Behavior (%) Lost Mass: 17.4%
MCF-7 organoids [3]; 10 μM, 48 h
  Organoid Behavior (%) Stable: 32.4%
  Organoid Behavior (%) Gained Mass: 32.4%
MCF-7 organoids [3]; 50 μM, 12 h
  Organoid Behavior (%) Stable: 58.6%
  Organoid Behavior (%) Gained Mass: 6.9%
MCF-7 organoids [3]; 50 μM, 24 h
  Organoid Behavior (%) Stable: 39.3%
  Organoid Behavior (%) Gained Mass: 14.3%
  Organoid Behavior (%) Lost Mass: 46.4%
MCF-7 organoids [3]; 50 μM, 48 h
  Organoid Behavior (%) Stable: 43.5%
  Organoid Behavior (%) Gained Mass: 4.3%
  Organoid Behavior (%) Lost Mass: 52.2%
